Results reported in publication PMC10485906, “Development of a Dihydroquinoline–Pyrazoline GluN2C/2D-Selective Negative Allosteric Modulator of the N-Methyl-D-aspartate Receptor” (ACS Chemical Neuroscience, 2023).

Key:
GluA1 = biological target: T1, GluA1 (Rattus norvegicus, UniProt P19490); test: Off-target, oocytes, GluA1; type: cell-based; details: 1 µM compound; 100 µM glutamate
T1 construct: expressed in transfected cells; host or cells: Xenopus oocytes (cRNA injection)
Description: (§1) Analysis of Off-target Actions
(§2) Compound (S)-(-)-2i was tested at 1 µM for actions at glycine-activated GluN1/GluN3A (human GluN1-F484A,T518L/GluN3A referred to a GluN1-FA,TL/GluN3A) and rat GluN1-4a/GluN3B in the presence of 0.5 µM CGP-78608. cRNA injection ratios for GluN1/GluN3 were 1:2. Compound (S)-(-)- 2i was also tested for actions at AMPA (rat GluA1, rat GluA2, human GluA3-L531Y), kainate (rat GluK2), nicotinic acetylcholine (rat α7 and α4β2, cRNA ratio 1:1), GABAA (rat α1β2γ2S, cRNA ratio 1:1:1), GABAC (rat ρ1), glycine (rat α1), and purinergic (human P2X) receptors expressed in Xenopus oocytes. cRNA encoding the receptor subunits was synthesized from linear template cDNA using the mMessage mMachine kit (Ambion). Oocytes were injected with 1-5 ng cRNA in a 50 nL volume and incubated in Barth's solution at 15°C for 2-5 days prior to recording. GluK2-expressing oocyte were incubated in 1 mg/ml (10 µM) concanavalin-A for 10 min prior to recording. The cDNAs encoding GABAC and glycine subunits were provided by Dr. D. Weiss (University of Texas Health Science Center at San Antonio). cDNAs encoding nicotinic acetylcholine receptor subunits were provided by Drs. […]
(§3) GABA. […] Responses in presence of test compound were expressed as a percent of control. […]

hGluA3-L531Y = test: Off-target, oocytes, GluA3; type: cell-based, human; details: 1 µM compound; 100 µM glutamate
Description: as §1, §2, §3

T1 sequence (P19490 19-907): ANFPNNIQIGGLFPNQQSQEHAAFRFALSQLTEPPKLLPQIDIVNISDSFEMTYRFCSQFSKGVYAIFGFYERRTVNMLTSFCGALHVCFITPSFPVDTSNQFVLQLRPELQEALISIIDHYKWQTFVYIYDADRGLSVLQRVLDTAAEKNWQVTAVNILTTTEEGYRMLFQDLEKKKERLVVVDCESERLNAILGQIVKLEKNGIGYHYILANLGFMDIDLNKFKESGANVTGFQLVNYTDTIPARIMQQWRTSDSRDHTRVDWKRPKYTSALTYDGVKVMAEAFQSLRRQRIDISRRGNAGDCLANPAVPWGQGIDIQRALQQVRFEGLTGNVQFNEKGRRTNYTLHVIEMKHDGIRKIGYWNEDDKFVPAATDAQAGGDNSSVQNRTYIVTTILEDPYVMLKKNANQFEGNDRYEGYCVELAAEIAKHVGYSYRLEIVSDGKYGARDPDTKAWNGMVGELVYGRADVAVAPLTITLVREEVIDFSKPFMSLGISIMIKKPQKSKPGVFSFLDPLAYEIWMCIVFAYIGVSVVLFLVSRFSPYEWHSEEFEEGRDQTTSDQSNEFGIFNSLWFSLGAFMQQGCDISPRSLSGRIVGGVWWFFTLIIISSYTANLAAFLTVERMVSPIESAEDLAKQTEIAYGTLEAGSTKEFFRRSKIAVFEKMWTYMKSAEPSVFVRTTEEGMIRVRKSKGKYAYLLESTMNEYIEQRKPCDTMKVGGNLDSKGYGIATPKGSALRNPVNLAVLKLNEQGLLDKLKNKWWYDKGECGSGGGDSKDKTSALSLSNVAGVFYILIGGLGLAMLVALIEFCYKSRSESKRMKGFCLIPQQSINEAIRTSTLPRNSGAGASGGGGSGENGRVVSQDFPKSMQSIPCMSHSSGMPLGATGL

- % control GluA1 (GluA1): 100 ± 2.0%
Compound: O=C(O)CC(F)(F)C(=O)N1N=C(c2c(-c3ccc(Cl)cc3)c3ccccc3[nH]c2=O)C[C@H]1c1ccc(Cl)cc1 [(S)-(−)-2i]
- % control hGluA3-L531Y (hGluA3-L531Y): 105 ± 1.2%
